The molecules below were run against T1, TGFβ R1 (Homo sapiens, UniProt P36897) (assay: TGFβ R1 autophosphorylation protocol (33P-ATP, phosphocellulose filter plate)). Conditions: 10 uM ATP, 170 nM TGFβ R1, 20 minutes at room temperature, read-out: IC50 for Kinase Inhibition.
T1 sequence (P36897 34-503): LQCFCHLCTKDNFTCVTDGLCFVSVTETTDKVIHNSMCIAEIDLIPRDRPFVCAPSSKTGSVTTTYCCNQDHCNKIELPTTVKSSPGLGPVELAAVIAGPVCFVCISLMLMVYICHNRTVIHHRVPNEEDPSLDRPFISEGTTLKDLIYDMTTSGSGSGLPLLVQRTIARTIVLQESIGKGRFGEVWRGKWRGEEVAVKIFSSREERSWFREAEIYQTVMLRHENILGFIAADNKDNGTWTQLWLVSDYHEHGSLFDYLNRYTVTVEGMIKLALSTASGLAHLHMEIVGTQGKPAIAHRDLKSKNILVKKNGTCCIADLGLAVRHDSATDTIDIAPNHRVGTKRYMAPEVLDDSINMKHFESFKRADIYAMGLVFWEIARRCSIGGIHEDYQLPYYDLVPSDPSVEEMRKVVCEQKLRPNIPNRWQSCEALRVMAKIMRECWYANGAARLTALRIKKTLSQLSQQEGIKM
Type: biochemical
Description: The compounds of the invention were tested for their ability to inhibit TGFβ by a TGFβ R^1 autophosphorylation protocol. This was conducted as follows: Compound dilutions and reagents were prepared fresh daily. Compounds were diluted from DMSO stock solutions to 2 times the desired assay concentration, keeping final DMSO concentration in the assay less than or equal to 1%. TGFβ R1 was diluted to 4 times the desired assay concentration in buffer+DTT. ATP was diluted into 4× reaction buffer, and gamma-^33P-ATP was added at 60 uCi/mL.
The assay was performed by adding 10 ul of the enzyme to 20 ul of the compound solution. The reaction was initiated by the addition of 10 ul of ATP mix. Final assay conditions included 10 uM ATP, 170 nM TGFβ R1, and […] in 20 mM MOPS, pH7. The reactions were incubated at room temperature for 20 minutes. The reactions were stopped by transferring 23 ul of reaction mixture onto a phosphocellulose 96-well filter plate, which had been pre-wetted with 15 ul of 0.25M H3PO4 per well. After 5 minutes, the wells were washed 4× with 75 mM H3PO4 and once with 95% ethanol. The plate was dried, scintillation cocktail was added to each well, and the wells were counted in a Packard TopCount microplate scintillation counter.
In the case of `COc1cnc(-c2cc(Cl)ccc2F)nc1Nc1ccncc1C(=O)NCCNC(=O)COC1O[C@H](CO)[C@H](O)[C@H](O)[C@H]1O` (stereo partly drawn) [Compound 159, 4-[2-(5-Chloro-2-fluoro-phenyl)-5-methoxy-pyrimidin-4-ylamino]-N-{2-[2-(3,4,5-trihydroxy-6-hydroxymethyl-tetrahydro-pyran-2-yloxy)-acetylamino]-ethyl}-nicotinamide], the IC50 is reported as 58 nM.
`COc1cnc(-c2cc(Cl)ccc2F)nc1Nc1ccncc1C(=O)NCCCNCCO[C@H]1O[C@H](CO)[C@H](O)[C@H](O)[C@H]1O` [Compound 139, 4-[2-(5-Chloro-2-fluoro-phenyl)-5-methoxy-pyrimidin-4-ylamino]-N-{3-[2-(3,4,5-trihydroxy-6-hydroxymethyl-tetrahydro-pyran-2-yloxy)-ethylamino]-propyl}-nicotinamide] showed an IC50 of 7 nM.
`COc1cnc(-c2cc(Cl)ccc2F)nc1Nc1ccncc1C(=O)NCCC#N` [Compound 72, 4-[2-(5-Chloro-2-fluoro-phenyl)-5-methoxy-pyrimidin-4-ylamino]-N-(2-cyano-ethyl)-nicotinamide] gave an IC50 of 100 nM.
In the case of `CN(C)c1cnc(-c2cc(Cl)ccc2F)nc1Nc1ccncc1C(=O)NCC(C)(C)O` [Compound 51], the IC50 is reported as 120 nM.
`COc1cnc(-c2cc(Cl)ccc2F)nc1Nc1ccncc1C(=O)NCCCN/C(=N/C#N)NC(C)C` [Compound 42] gave an IC50 of 120 nM.
Work on `COc1cnc(-c2cc(Cl)ccc2F)nc1Nc1ccncc1C(=O)NCCCNC(=O)NC(C)C` [Compound 66, 4-[2-(5-Chloro-2-fluoro-phenyl)-5-methoxy-pyrimidin-4-ylamino]-N-[3-(3-isopropyl-ureido)-propyl]-nicotinamide] yielded an IC50 of 270 nM.
For `COc1cnc(-c2cc(Cl)ccc2F)nc1Nc1ccncc1C(=O)NCCNC(=O)NC(C)C` [Compound 80, 4-[2-(5-Chloro-2-fluoro-phenyl)-5-methoxy-pyrimidin-4-ylamino]-N-[2-(3-isopropyl-ureido)-ethyl]-nicotinamide], the IC50 was 570 nM.
For `CNC(=O)NCCNC(=O)c1cnccc1Nc1nc(-c2cc(Cl)ccc2F)ncc1OC` [Compound 68, 4-[2-(5-chloro-2-fluoro-phenyl)-5-methoxy-pyrimidin-4-ylamino]-N-[2-(3-methyl-ureido)-ethyl]nicotinamide], the IC50 was 1540 nM.
`NC(=O)c1cnccc1Nc1nc(-c2cc(Cl)ccc2F)ncc1I` [Compound 78, 4-[2-(5-Chloro-2-fluoro-phenyl)-5-iodo-pyrimidin-4-ylamino]-nicotinamide] showed an IC50 of 10 nM.
With `COc1cnc(-c2cc(Cl)ccc2F)nc1Nc1ccncc1C(=O)NCCCN(CCC1O[C@H](CO)[C@@H](O)[C@H](O)[C@@H]1O)C(C)C` (stereo partly drawn) [Compound 153, 4-[2-(5-Chloro-2-fluoro-phenyl)-5-methoxy-pyrimidin-4-ylamino]-N-(3-{isopropyl-[2-(3,4,5-trihydroxy-6-hydroxymethyl-tetrahydro-pyran-2-yl)-ethyl]-amino}-propyl)-nicotinamide] the IC50 was 19 nM.
`COc1cnc(-c2cc(Cl)ccc2F)nc1Nc1ccncc1C(=O)NC1CCN(C(=O)OC(C)(C)C)CC1` [Compound 8, 4-({4-[2-(5-Chloro-2-fluoro-phenyl)-5-methoxy-pyrimidin-4-ylamino]-pyridine-3-carbonyl}-amino)-piperidine-1-carboxylic acid tert-butyl ester] was tested, and the IC50 was 60 nM.
Molecule `COc1cnc(-c2cc(Cl)ccc2F)nc1Nc1ccncc1C(=O)NCC(C)(C)O` [Compound 58, 4-[2-(5-Chloro-2-fluoro-phenyl)-5-methoxy-pyrimidin-4-ylamino]-N-(2-hydroxy-2-methyl-propyl)-nicotinamide] has an IC50 of 470 nM.
Work on `COc1cnc(-c2cc(Cl)ccc2F)nc1Nc1ccncc1C(=O)NCCCn1ccnc1` [Compound 10, 4-[2-(5-Chloro-2-fluoro-phenyl)-5-methoxy-pyrimidin-4-ylamino]-N-(3-inidazol-1-yl-propyl)-nicotinamide] yielded an IC50 of 60 nM.

Same assay, conditions: 10 uM ATP, 170 nM TGFβ R1, room temperature 20 minutes, read-out: IC50 for Kinase Inhibition
With `CC(C)c1cnc(-c2cc(Cl)ccc2F)nc1Nc1ccncc1C(=O)N1CCC[C@@H](O)C1` [Compound 217, {4-[2-(5-Chloro-2-fluoro-phenyl)-5-isopropyl-pyrimidin-4-ylamino]-pyridin-3-yl}-(3-hydroxy-piperidin-1-yl)-methanone] the IC50 was 1210 nM.
Work on `CC(C)c1cnc(-c2cc(Cl)ccc2F)nc1Nc1ccncc1C(=O)N1CCC(O)CC1` [Compound 230, {4-[2-(5-Chloro-2-fluoro-phenyl)-5-isopropyl-pyrimidin-4-ylamino)-pyridin-3-yl}-(4-hydroxy-piperidin-1-yl)-methanone] yielded an IC50 of 1140 nM.
In the case of `CC(C)c1cnc(-c2cc(Cl)ccc2F)nc1Nc1ccncc1C(=O)NCCCN1CCC[C@H]1CO` [Compound 164, 4-[2-(5-Chloro-2-fluoro-phenyl)-5-isopropyl-pyrimidin-4-ylamino]-N-[3-(2-hydroxymethyl-pyrrolidin-1-yl)-propyl]-nicotinamide], the IC50 is reported as 2 nM.
Work on `CC(C)c1cnc(-c2cc(Cl)ccc2F)nc1Nc1ccncc1C(=O)NC1C[C@@H]1CO` (stereo in doubt) [Compound 215, 4-[2-(5-Chloro-2-fluoro-phenyl)-5-isopropyl-pyrimidin-4-ylamino]-N-(2-hydroxymethyl-cyclopropyl)-nicotinamide] yielded an IC50 of 5 nM.
`CC(C)c1cnc(-c2cc(Cl)ccc2F)nc1Nc1ccncc1C(=O)N1CCN[C@@H](C(C)C)C1` [Compound 231, {4-[2-(5-Chloro-2-fluoro-phenyl)-5-isopropyl-pyrimidin-4-ylamino]-pyridin-3-yl}-(3-isopropyl-piperazin-1-yl)-methanone] showed an IC50 of 1090 nM.
In the case of `CCNC(=O)[C@@H]1CCCN1CCCNC(=O)c1cnccc1Nc1nc(-c2cc(Cl)ccc2F)ncc1OC` [Compound 167, 4-[2-(5-Chloro-2-fluoro-phenyl)-5-methoxy-pyrimidin-4-ylamino]-N-[3-(2-ethylcarbamoyl-pyrrolidin-1-yl)-propyl]-nicotinamide], the IC50 is reported as 28 nM.
With `CC(C)c1cnc(-c2cc(Cl)ccc2F)nc1Nc1ccncc1C(=O)NCCCN1C[C@H](O)C[C@H]1C(=O)N1CCCC1` [Compound 191, 4-[2-(5-Chloro-2-fluoro-phenyl)-5-isopropyl-pyrimidin-4-ylamino]-N-{3-[4-hydroxy-2-(pyrrolidine-1-carbonyl)-pyrrolidin-1-yl]-propyl}-nicotinamide] the IC50 was 13 nM.
Work on `CC(=O)CNC(=O)c1cnccc1Nc1nc(-c2cc(Cl)ccc2F)ncc1C(C)C` [Compound 169, 4-[2-(5-Chloro-2-fluoro-phenyl)-5-isopropyl-pyrimidin-4-ylamino]-N-(2-oxo-propyl)-nicatinamide] yielded an IC50 of 3 nM.
Molecule `CC(C)c1cnc(-c2cc(Cl)ccc2F)nc1Nc1ccncc1C(=O)N1CCNCC1` [Compound 232, {4-[2-(5-Chloro-2-fluoro-phenyl)-5-isopropyl-pyrimidin-4-ylamino]-pyridin-3-yl}-piperazin-1-yl-methanone] has an IC50 of 990 nM.
Molecule `CNC(=O)[C@@H]1CCCN1CCCNC(=O)c1cnccc1Nc1nc(-c2cc(Cl)ccc2F)ncc1C(C)C` [Compound 177, 4-[2-(5-Chloro-2-fluoro-phenyl)-5-isopropyl-pyrimidin-4-ylamino]-N-[3-(2-methylcarbamoyl-pyrrolidin-1-yl)-propyl]-nicotinamide] has an IC50 of 11 nM.
For `CC(C)c1cnc(-c2cc(Cl)ccc2F)nc1Nc1ccncc1C(=O)NC1CCC[C@@H]1OCc1ccccc1` (stereo in doubt) [Compound 223, N-(2-Benzyloxy-cyclopentyl)-4-[2-(5-chloro-2-fluoro-phenyl)-5-isopropyl-pyrimidin-4-ylamino]-nicotinamide], the IC50 was 7140 nM.
Work on `O=C(c1cnccc1Nc1nc(-c2cc(Cl)ccc2F)ncc1C1CCCC1)N1CCC[C@H](O)C1` [Compound 226, {4-[2-(5-Chloro-2-fluoro-phenyl)-5-cyclopentyl-pyrimidin-4-ylamino]-pyridin-3-yl}-(3-hydroxy-piperidin-1-yl)-methanone] yielded an IC50 of 2470 nM.
In the case of `CC(C)c1cnc(-c2cc(Cl)ccc2F)nc1Nc1ccncc1C(=O)NCCC(=O)N1CCC[C@H]1C(=O)N(C)C` [Compound 194, 4-[2-(5-Chloro-2-fluoro-phenyl)-5-isopropyl-pyrimidin-4-ylamino]-N-[3-(2-dimethyl-carbamoyl-pyrrolidin-1-yl)-3-oxo-propyl]-nicotinamide], the IC50 is reported as 41 nM.
In the case of `CC(C)c1cnc(-c2cc(Cl)ccc2F)nc1Nc1ccncc1C(=O)N1CCN(C)CC1` [Compound 208, {4-[2-(5-Chloro-2-fluoro-phenyl)-5-isopropyl-pyrimidin-4-ylamino]-pyridin-3-yl}-(4-methyl-piperazin-1-yl)-methanone], the IC50 is reported as 1620 nM.

Source: patent publication US20060281763A1, “Carboxamide inhibitors of TGFbeta” (priority 2005, published 2006)
